Experimental data reported in the supplement of paper PMC10307832.

How the values were obtained:
Assay in all cases: relative viability (nuclei count vs DMSO), 5 days (fraction); higher = more cells survive
[1] = system: EPLC-272H
Method in brief: (§1)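 For relative viability, nuclei counts in treated wells were divided by those in vehicle wells. Lung cancer cell lines had been pin-tool dosed in 1536-well plates the day after seeding and cultured for 5 days, then fixed and stained in one step (final 0.05% Triton X-100, 1% formaldehyde, 1 ug/ml Hoechst) and imaged at 4×. Doses were one drug alone or a fixed anchor-drug dose plus five library-drug doses (not always all listed) in √10 steps, and values are duplicate-plate medians.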

[2] = system: EMC-BAC-2
Method in brief: as §1

[3] = system: NCI-H1355
Method in brief: as §1

[4] = system: NCI-H2085
Method in brief: as §1

[5] = system: NCI-H520
Method in brief: as §1

[6] = system: NCI-H2405
Method in brief: as §1

[7] = system: UMC-11
Method in brief: as §1

[8] = system: H3255
Method in brief: as §1

[9] = system: NCI-H322M
Method in brief: as §1

[10] = system: ChaGo-K-1
Method in brief: as §1

[11] = system: NCI-H650
Method in brief: as §1

[12] = system: HCC-827
Method in brief: as §1

[13] = system: NCI-H1944
Method in brief: as §1

[14] = system: LCLC-97TM1
Method in brief: as §1

[15] = system: NCI-H2087
Method in brief: as §1

[16] = system: HCC-44
Method in brief: as §1

[17] = system: NCI-H1395
Method in brief: as §1

[18] = system: NCI-H1651
Method in brief: as §1

[19] = system: LCLC-103H
Method in brief: as §1

[20] = system: NCI-H1993
Method in brief: as §1

[21] = system: SK-MES-1
Method in brief: as §1

[22] = system: NCI-H23
Method in brief: as §1

[23] = system: NCI-H1793
Method in brief: as §1

With `C[C@@H]1CN(CC(=O)Nc2ccc3c(c2)Cc2cccc(-c4cc(=O)cc(N5CCOCC5)o4)c2S3)C[C@H](C)O1` + CC(=O)c1c(C)c2cnc(Nc3ccc(N4CCNCC4)cn3)nc2n(C2CCCC2)c1=O [Palbociclib] (partner 0.5 µM) the relative viability ([1]; first compound 0.04 µM) was 0.38, the relative viability ([1]; first compound 0.1265 µM) was 0.388 and the relative viability ([1]; first compound 0.4 µM) was 0.331. For the same molecule, the relative viability ([1]; first compound 4 µM) was 0.321, the relative viability ([2]; first compound 0.04 µM) was 0.502 and the relative viability ([2]; first compound 0.1265 µM) was 0.529. It also gave a relative viability ([2]; first compound 0.4 µM) of 0.502, a relative viability ([2]; first compound 4 µM) of 0.545 and a relative viability ([3]; first compound 0.04 µM) of 0.397. For the same molecule, the relative viability ([3]; first compound 0.1265 µM) was 0.4, the relative viability ([3]; first compound 0.4 µM) was 0.404 and the relative viability ([3]; first compound 4 µM) was 0.385. It also gave a relative viability ([4]; first compound 0.04 µM) of 0.476, a relative viability ([4]; first compound 0.1265 µM) of 0.436 and a relative viability ([4]; first compound 0.4 µM) of 0.498. For the same molecule, the relative viability ([4]; first compound 4 µM) was 0.419, the relative viability ([5]; first compound 0.04 µM) was 0.219 and the relative viability ([5]; first compound 0.1265 µM) was 0.259. It also gave a relative viability ([5]; first compound 0.4 µM) of 0.172, a relative viability ([5]; first compound 4 µM) of 0.215 and a relative viability ([6]; first compound 0.04 µM) of 0.564. It also gave a relative viability ([6]; first compound 0.1265 µM) of 0.521, a relative viability ([6]; first compound 0.4 µM) of 0.486 and a relative viability ([6]; first compound 4 µM) of 0.506. It also gave a relative viability ([7]; first compound 0.04 µM) of 0.33, a relative viability ([7]; first compound 0.1265 µM) of 0.332 and a relative viability ([7]; first compound 0.4 µM) of 0.321. It also gave a relative viability ([7]; first compound 4 µM) of 0.338, a relative viability ([8]; first compound 0.04 µM) of 0.276 and a relative viability ([8]; first compound 0.1265 µM) of 0.345. For the same molecule, the relative viability ([8]; first compound 0.4 µM) was 0.268, the relative viability ([8]; first compound 4 µM) was 0.305 and the relative viability ([9]; first compound 0.04 µM) was 0.421. The relative viability ([9]; first compound 0.1265 µM) was 0.475, the relative viability ([9]; first compound 0.4 µM) was 0.506 and the relative viability ([9]; first compound 4 µM) was 0.522. It also gave a relative viability ([10]; first compound 0.04 µM) of 0.902, a relative viability ([10]; first compound 0.1265 µM) of 0.924 and a relative viability ([10]; first compound 0.4 µM) of 0.925. For the same molecule, the relative viability ([10]; first compound 4 µM) was 0.898, the relative viability ([11]; first compound 0.04 µM) was 0.319 and the relative viability ([11]; first compound 0.1265 µM) was 0.389. For the same molecule, the relative viability ([11]; first compound 0.4 µM) was 0.378, the relative viability ([11]; first compound 4 µM) was 0.281 and the relative viability ([12]; first compound 0.04 µM) was 0.502. The relative viability ([12]; first compound 0.1265 µM) was 0.49, the relative viability ([12]; first compound 0.4 µM) was 0.433 and the relative viability ([12]; first compound 4 µM) was 0.442. For the same molecule, the relative viability ([13]; first compound 0.1265 µM) was 0.343, the relative viability ([13]; first compound 0.4 µM) was 0.344 and the relative viability ([13]; first compound 4 µM) was 0.354. For the same molecule, the relative viability ([14]; first compound 0.1265 µM) was 0.25, the relative viability ([14]; first compound 0.4 µM) was 0.206 and the relative viability ([14]; first compound 4 µM) was 0.246. It also gave a relative viability ([15]; first compound 0.04 µM) of 0.213, a relative viability ([15]; first compound 0.1265 µM) of 0.253 and a relative viability ([15]; first compound 0.4 µM) of 0.244. It also gave a relative viability ([15]; first compound 4 µM) of 0.267, a relative viability ([16]; first compound 0.04 µM) of 0.917 and a relative viability ([16]; first compound 0.1265 µM) of 0.965. The relative viability ([16]; first compound 0.4 µM) was 0.929, the relative viability ([16]; first compound 4 µM) was 0.919 and the relative viability ([17]; first compound 0.1265 µM) was 0.626. The relative viability ([17]; first compound 0.4 µM) was 0.575, the relative viability ([17]; first compound 4 µM) was 0.595 and the relative viability ([18]; first compound 0.04 µM) was 0.543. The relative viability ([18]; first compound 0.1265 µM) was 0.502, the relative viability ([18]; first compound 0.4 µM) was 0.51 and the relative viability ([18]; first compound 4 µM) was 0.527. The relative viability ([19]; first compound 0.04 µM) was 0.441, the relative viability ([19]; first compound 0.1265 µM) was 0.47 and the relative viability ([19]; first compound 0.4 µM) was 0.446. The relative viability ([19]; first compound 4 µM) was 0.47, the relative viability ([20]; first compound 0.04 µM) was 0.645 and the relative viability ([20]; first compound 0.1265 µM) was 0.729. The relative viability ([20]; first compound 0.4 µM) was 0.438, the relative viability ([20]; first compound 4 µM) was 0.662 and the relative viability ([21]; first compound 0.04 µM) was 0.35. It also gave a relative viability ([21]; first compound 0.1265 µM) of 0.323, a relative viability ([21]; first compound 0.4 µM) of 0.309 and a relative viability ([21]; first compound 4 µM) of 0.302. It also gave a relative viability ([22]; first compound 0.04 µM) of 0.455, a relative viability ([22]; first compound 0.1265 µM) of 0.538 and a relative viability ([22]; first compound 0.4 µM) of 0.436. For the same molecule, the relative viability ([22]; first compound 4 µM) was 0.495, the relative viability ([23]; first compound 0.04 µM) was 0.297 and the relative viability ([23]; first compound 0.1265 µM) was 0.323. The relative viability ([23]; first compound 0.4 µM) was 0.296 and the relative viability ([23]; first compound 4 µM) was 0.2.

Work on `CC(C)Oc1cc(Nc2nc(N[C@@H](C)c3ccc(F)cn3)ncc2Cl)n[nH]1` [AZ23] + O=C(c1cc(Cc2n[nH]c(=O)c3ccccc23)ccc1F)N1CCN(C(=O)C2CC2)CC1 [Olaparib] (partner 8 µM) yielded a relative viability ([1]; first compound 0.03162 µM) of 0.563, a relative viability ([1]; first compound 0.3162 µM) of 0.901 and a relative viability ([2]; first compound 0.01 µM) of 0.545. The relative viability ([2]; first compound 0.03162 µM) was 0.514, the relative viability ([2]; first compound 0.3162 µM) was 0.503 and the relative viability ([3]; first compound 0.01 µM) was 0.808. The relative viability ([3]; first compound 0.03162 µM) was 0.771, the relative viability ([3]; first compound 0.3162 µM) was 0.699 and the relative viability ([4]; first compound 0.01 µM) was 0.784. It also gave a relative viability ([4]; first compound 0.03162 µM) of 0.884, a relative viability ([4]; first compound 0.3162 µM) of 0.791 and a relative viability ([5]; first compound 0.01 µM) of 0.346. For the same molecule, the relative viability ([5]; first compound 0.03162 µM) was 0.328, the relative viability ([5]; first compound 0.3162 µM) was 0.312 and the relative viability ([6]; first compound 0.01 µM) was 0.855. It also gave a relative viability ([6]; first compound 0.03162 µM) of 0.903, a relative viability ([6]; first compound 0.3162 µM) of 0.831 and a relative viability ([7]; first compound 0.01 µM) of 0.392. For the same molecule, the relative viability ([7]; first compound 0.03162 µM) was 0.422, the relative viability ([7]; first compound 0.3162 µM) was 0.372 and the relative viability ([8]; first compound 0.01 µM) was 0.524. It also gave a relative viability ([8]; first compound 0.03162 µM) of 0.581, a relative viability ([8]; first compound 0.3162 µM) of 0.542 and a relative viability ([9]; first compound 0.01 µM) of 0.564. The relative viability ([9]; first compound 0.03162 µM) was 0.749, the relative viability ([9]; first compound 0.3162 µM) was 0.741 and the relative viability ([10]; first compound 0.01 µM) was 0.519. For the same molecule, the relative viability ([10]; first compound 0.03162 µM) was 0.407, the relative viability ([10]; first compound 0.3162 µM) was 0.406 and the relative viability ([11]; first compound 0.01 µM) was 0.483. The relative viability ([11]; first compound 0.03162 µM) was 0.454, the relative viability ([11]; first compound 0.3162 µM) was 0.357 and the relative viability ([12]; first compound 0.01 µM) was 0.665. It also gave a relative viability ([12]; first compound 0.03162 µM) of 0.764, a relative viability ([12]; first compound 0.3162 µM) of 0.712 and a relative viability ([13]; first compound 0.01 µM) of 0.443. For the same molecule, the relative viability ([13]; first compound 0.03162 µM) was 0.472, the relative viability ([13]; first compound 0.3162 µM) was 0.448 and the relative viability ([14]; first compound 0.01 µM) was 0.299. The relative viability ([14]; first compound 0.03162 µM) was 0.526, the relative viability ([14]; first compound 0.3162 µM) was 0.416 and the relative viability ([15]; first compound 0.01 µM) was 0.819. The relative viability ([15]; first compound 0.03162 µM) was 0.73, the relative viability ([15]; first compound 0.3162 µM) was 0.642 and the relative viability ([16]; first compound 0.01 µM) was 1.04. For the same molecule, the relative viability ([16]; first compound 0.03162 µM) was 1.04, the relative viability ([16]; first compound 0.3162 µM) was 0.979 and the relative viability ([17]; first compound 0.03162 µM) was 0.424. For the same molecule, the relative viability ([17]; first compound 0.3162 µM) was 0.452, the relative viability ([18]; first compound 0.01 µM) was 0.182 and the relative viability ([18]; first compound 0.03162 µM) was 0.166. For the same molecule, the relative viability ([18]; first compound 0.3162 µM) was 0.19, the relative viability ([19]; first compound 0.01 µM) was 0.981 and the relative viability ([19]; first compound 0.03162 µM) was 0.86. The relative viability ([19]; first compound 0.3162 µM) was 0.864, the relative viability ([20]; first compound 0.01 µM) was 1.08 and the relative viability ([20]; first compound 0.03162 µM) was 1.07. It also gave a relative viability ([20]; first compound 0.3162 µM) of 1.01, a relative viability ([21]; first compound 0.03162 µM) of 0.833 and a relative viability ([21]; first compound 0.3162 µM) of 0.764. The relative viability ([22]; first compound 0.03162 µM) was 0.263, the relative viability ([22]; first compound 0.3162 µM) was 0.394 and the relative viability ([23]; first compound 0.01 µM) was 0.756. The relative viability ([23]; first compound 0.03162 µM) was 1.1 and the relative viability ([23]; first compound 0.3162 µM) was 0.85.
